# From patent EP4458977A1, “SELF-ASSEMBLING PEPTIDE AMPHIPHILES AS RETROVIRAL TRANSDUCTION ENHANCERS” (Max-Planck-Gesellschaft zur Förderung der Wissenschaften …, priority 2023, dated 2024)
# Several values for one entry are separate records, joined by “and”; a condition that tells them apart may be missing. Equal entries are not always repeated. Entries after “also recorded” stand apart in the source; their conditions may differ. Where two headings read alike, the source gives them in different places. Where a SMILES comes first, the peptide text is derived from it. Where no end group is shown, it is not given here. The star is where a group is joined. 2‑naphthylmethyl = c1ccc2cc(C*)ccc2c1; Palmitoyl = CCCCCCCCCCCCCCCC(=O)*
# Assays:
# [1] = ATR-FT-IR determination of β-sheet content; assay type: physicochemical; conditions: 1 mg/mL in PBS lyophilized; integral at 1630 cm^-1 relative to 1650-1700 cm^-1
# Summary of the method: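 Lyophilized fibril samples measured by diamond ATR-FT-IR, 2 cm^-1 resolution, 64 scans averaged. β-sheet content taken from the second-derivative spectrum as the 1630 cm-1 peak integral relative to the 1650-1700 cm-1 integral.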
# [2] = system: HeLa cells; assay: Confocal laser scanning microscopy and degradation study with PA library and HeLa cells; assay type: cell-based; conditions: for association with cellular membranes: 2 µg added to 20.000 HeLa cells, 30 min; for degradability (in words) / Degradability / % (rel. to initial particles > 10 µm^2): HeLa cells; for degradability (in words): 3 days; for Degradability / % (rel. to initial particles > 10 µm^2): 3 d relative to 30 min; for aggregate number decreases / degraded in presence of HeLa cells within 3 days: d3 relative to d0
# Summary of the method: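 HeLa cells (20,000/well) got Proteostat-stained PAs (2 µg peptide per 20.000 cells) with Hoechst nuclear stain, 30 min at 37°C, PBS-washed, then held 3 d at 37°C unwashed. Confocal imaging at d0 and d3 counted aggregates >10 µm^2 in 1008 × 1008 µm, three technical replicates. Degradation taken as d3/d0 aggregate number.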
# [3] = Zeta-potential measurement (dynamic light scattering); assay type: physicochemical
# [4] = system: HIV-1; conditions: for Infectivity enhancing N fold at 1.3 µM: relative to virus only;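 as to all read-outs here: TZM-bl reporter cells exposed to HIV-1 with peptide fibrils, infection read out as β-galactosidase luminescence, compared with virus alone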
# Experimental: HIV-1 Infection Assay with TZM-bl cells: The effect of peptide fibrils on HIV-1 infection was studied via a luminescence assay for β-galactosidase, which was reported by TZM-bl cells upon infection. The HIV-1 infection assay was conducted in three technical replicates and repeated in three independent experiments unless stated otherwise.
# [5] = Fluorescence microscopy of ThT-stained fibrils (µm-sized aggregates); assay type: physicochemical; conditions: for fluorescent, µm-sized aggregates (ThT staining): 1 mg/mL stained with 50 µM ThT
# Summary of the method: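 Fibrils (1 mg mL^-1) mixed 1:9 with 50 µM ThT, giving 0.1 mg mL^-1 stained fibrils on glass. Imaged under 10x air objective with excitation 480/40 nm and emission 527/30 nm. Fibrils called distinct when no visible structures appeared in fluorescence or brightfield.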
# [6] = Thioflavin T (ThT) fluorescence assay; assay type: physicochemical; conditions: relative to PBS control
# Experimental: Transmission electron microscopy (TEM) measurements, Thioflavin (ThT), zeta-potential measurements for fibril characterization were prepared and conducted according to prior art procedures. […] Fibrils were defined as distinct, if no visible structures could be identified in fluorescence and brightfield microscopy. A peptide fibril was considered as ThT-active if the fluorescence intensity was at least twice as strong compared to the control (PBS containing 10% DMSO).
# [7] = TEM of peptide assemblies (fibril formation / assembly); assay type: physicochemical; design: key to Fibril Formation: "1" means fibril formation observed; "0" means no fibrils observed; conditions: for TEM morphology (in words): 1 mg/mL in PBS; for Assembly without hydrophob residue: corresponding peptide without hydrophobic moiety; for Assembly: peptide amphiphile; for Fibril Formation: via TEM
# Summary of the method: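 Peptides predissolved in DMSO at 10 mg/mL (stock), diluted in PBS to 650 µM or 1 mg/mL final and incubated 1 d at rt (20–25 °C) to form fibrils. Other concentrations obtained by diluting preformed fibrils; assemblies imaged by TEM.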
# [8] = Zeta-potential measurement (dynamic light scattering); assay type: physicochemical; conditions: for Count Rate / kcps: derived count rate of scattered light during zeta-potential measurements
# Experimental: Zeta-potential: 60 µL of the peptides (1 mg mL-1) were diluted in 600 µL, 1 mM KCI solution and placed in a disposable folded capillary cuvette. All zeta-potential measurements were conducted by dynamic light scattering technology (Zetasizer, Malvern Instruments) and in triplicates for each sample. The derived count rate of the zeta potential measurement was used as information on the light scattering intensity and turbidity of the sample as a further indicator for microscopic aggregation.
Compound,β-sheet amount [1],association with cellular membranes [2],degradability (in words) [2],Degradability / % (rel. to initial particles > 10 µm^2) [2],aggregate number decreases / degraded in presence of HeLa cells within 3 days [2],Zeta-Potential / mV [3],"enhances infectivity at 1.3 µM concentration, times more efficient compared to virus only infection [4]",Infectivity enhancing N fold at 1.3 µM [4],"fluorescent, µm-sized aggregates (ThT staining) [5]",N-fold ThT-fluorescence [6],TEM morphology (in words) [7],Assembly without hydrophob residue [7],Assembly [7],Fibril Formation ([7]; linkage chemistry exchange),Count Rate / kcps [8],also measured
C16-ester-SVVVAAAKKK-NH2 (S(Palmitoyl)VVVAAAKKK-NH2; N-terminus assumed; SMILES CCCCCCCCCCCCCCCC(=O)OC[C@H](N)C(=O)N[C@H](C(=O)N[C@H](C(=O)N[C@H](C(=O)N[C@@H](C)C(=O)N[C@@H](C)C(=O)N[C@@H](C)C(=O)N[C@@H](CCCCN)C(=O)N[C@@H](CCCCN)C(=O)N[C@@H](CCCCN)C(N)=O)C(C)C)C(C)C)C(C)C) [Pat1],43%,association with cellular membranes,"degraded well, but not as efficient as PA1 or Pat3; also recorded: degradable PA",31%,30%,20.5 mV,17 times,17±5 N fold,"fluorescent, µm-sized aggregates",277.1,fibrillar morphologies,No,Yes,1,3217.3 kcps,–
C16-thioester-CVVVAAAKKK-NH2 (C(Palmitoyl)VVVAAAKKK-NH2; N-terminus assumed; SMILES CCCCCCCCCCCCCCCC(=O)SC[C@H](N)C(=O)N[C@H](C(=O)N[C@H](C(=O)N[C@H](C(=O)N[C@@H](C)C(=O)N[C@@H](C)C(=O)N[C@@H](C)C(=O)N[C@@H](CCCCN)C(=O)N[C@@H](CCCCN)C(=O)N[C@@H](CCCCN)C(N)=O)C(C)C)C(C)C)C(C)C) [Pat3],50%,association with cellular membranes,degradable PA,87%,87%,18.3 mV,11 times,11±4 N fold,"fluorescent, µm-sized aggregates",166.1,fibrillar morphologies,No,Yes,1,2058.5 kcps,"enhancement of HIV-1 infection / transduction (in words) ([4]; 6.5 µM, 1.3 µM, 0.26 µM): potent enhancers of HIV-1 infection"
"CCCCCCCCCCCCCCCC(=O)N[C@@H](CC(C)C)C(=O)N[C@@H](CC(C)C)C(=O)N[C@@H](CC(C)C)C(=O)N[C@@H](CCCCN)C(=O)N[C@@H](CCCCN)C(N)=O [Pat23, C16-LLLKK-NH2] (Palmitoyl-LLLKK-NH2)",46%,association with cellular membranes,moderately degradable PA,27%,27%,20.9 mV,3 times,3±0 N fold,"fluorescent, µm-sized aggregates",–,fibrillar morphologies,No,Yes,–,–,–
Nap-VVVAAAKKK-NH2 ({2‑naphthylmethyl}-VVVAAAKKK-NH2; SMILES CC(C)[C@H](NCc1ccc2ccccc2c1)C(=O)N[C@H](C(=O)N[C@H](C(=O)N[C@@H](C)C(=O)N[C@@H](C)C(=O)N[C@@H](C)C(=O)N[C@@H](CCCCN)C(=O)N[C@@H](CCCCN)C(=O)N[C@@H](CCCCN)C(N)=O)C(C)C)C(C)C) [Pat13],46%,–,–,–,–,1.2 mV,–,1±1 N fold,–,1.3,formed fibrils in aqueous medium,No,Yes,–,9.3 kcps,infectivity enhancement at 1.3 µM concentration compared to virus only infection (in words) [4]: does not enhance infectivity; formation of µm-sized aggregates in aqueous medium / PBS (in words) [5]: failed to form µm-sized aggregates in aqueous medium; Fibril Formation ([7]; hydrophobic moiety exchange): 1; zeta-potential (in words) [8]: almost neutral zeta-potential
"CCCCCCCCCCCCCCCC(=O)N[C@H](C(=O)N[C@H](C(=O)N[C@@H](CCC(N)=O)C(=O)N[C@@H](CCCCN)C(=O)N[C@H](C(=O)N[C@@H](CCCCN)C(N)=O)[C@@H](C)CC)[C@@H](C)CC)[C@@H](C)CC [Pat15, C16-IIQKIK-NH2] (Palmitoyl-IIQKIK-NH2)",45%,association with cellular membranes,degradable PA,-28%,28%,12.6 mV,4 times,4±1 N fold,"fluorescent, µm-sized aggregates",–,fibrillar morphologies,No,Yes,–,–,Degradability / % (rel. to initial particles > 10 µm^2) ([2]; listed as Pat 15): 28%; Infectivity enhancing N fold at 1.3 µM ([4]; listed as Pat 15): 4 N fold
"CCCCCCCCCCCCCCCC(=O)N[C@@H](CC(C)C)C(=O)N[C@@H](CC(N)=O)C(=O)NCC(=O)NCC(=O)N[C@H](C(=O)N[C@@H](CCCCN)C(=O)N[C@@H](CCCCN)C(N)=O)C(C)C [Pat19, C16-LNGGVKK-NH2] (Palmitoyl-LNGGVKK-NH2)",34%,association with cellular membranes,degradable PA,48%,48%,19.4 mV,6 times,6 N fold and 6±1 N fold,"fluorescent, µm-sized aggregates",–,fibrillar morphologies,No,Yes,–,–,–
